We go through 1 compound from article PMC6257670 (2010).

The assay concerns biotinylated m012 (RNA, aptamer) GGCGAAUUCUUCCGUUAUUGGAGCCAAGUCGCC
As to the kind of experiment: competitive ELAA, absorbance 405 nm. To be noted: 150 mM NaCl, 5 mM MgCl2; 50 mM HEPES pH 7.4 (wash), 25 °C; biotinylated SPC (6 µM) displaced; immobilised aptamer.

In the case of `CCCCCCCCCCCCC/C=C/[C@@H](O)[C@@H](N)COP(=O)([O-])OCC[N+](C)(C)C`, the binding result is given as “yes”.
